Results: publication PMC10281575, “PfCRT mutations conferring piperaquine resistance in falciparum malaria shape the kinetics of quinoline drug binding and transport” (PLOS Pathogens, 2023)
Residue numbers refer to the chain shown, from its start. Several values for one entry are separate records, joined by “and”; a condition that tells them apart may be missing. Identical values can stand only once. Like-named read-outs stand apart in the source and are kept apart here.

Columns and labels:
PfCRT^Dd2_I260A = target: T1, PfCRT^Dd2_I260A (Plasmodium falciparum, UniProt Q8IBZ9, A220S/I260A/I356T/K76T/M74I/N326S/N75E/Q271E/R371I); experiment: PfCRT-mediated CQ transport in oocytes expressing PfCRT^Dd2_I260A; assay type: cell-based; settings: S6 Fig; per biological replicate
T1 construct: expressed in transfected cells; host or cells: Xenopus laevis oocytes
T1 sequence (Q8IBZ9 1-424 M74I/N75E/K76T/A220S/I260A/Q271E/N326S/I356T/R371I): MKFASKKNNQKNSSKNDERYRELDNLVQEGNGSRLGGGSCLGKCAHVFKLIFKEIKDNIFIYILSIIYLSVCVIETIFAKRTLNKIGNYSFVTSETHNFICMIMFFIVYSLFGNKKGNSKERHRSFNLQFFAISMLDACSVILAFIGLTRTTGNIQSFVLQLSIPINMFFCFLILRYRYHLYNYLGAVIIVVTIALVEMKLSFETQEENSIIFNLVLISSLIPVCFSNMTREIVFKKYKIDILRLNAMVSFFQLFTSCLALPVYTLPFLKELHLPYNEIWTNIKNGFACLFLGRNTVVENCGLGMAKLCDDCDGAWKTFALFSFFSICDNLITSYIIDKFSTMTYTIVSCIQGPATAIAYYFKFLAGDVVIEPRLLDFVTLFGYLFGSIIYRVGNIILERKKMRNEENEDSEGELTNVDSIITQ
Source text: (§1) The docking results reflect the differences in the experimentally measured affinities of the two compounds for PfCRT^Dd2, with CQ having less favorable docking scores compared to PPQ (S1 Table). […] In this pose, CQ forms polar contacts via the two positively charged nitrogens: the nitrogen of the diethylamino tail makes a salt bridge with E75 on TM1 and the nitrogen of the 4-amminoquinoline ring makes a hydrogen bond with S257 on TM7. Hydrophobic contacts are established by the quinoline ring with I260, V141, and F145.
(§2) Drug transport assays were performed as previously described. Briefly, measurements of radiolabeled drug uptake were made over 1 h, unless otherwise specified. […] Where specified, one or more unlabeled drugs were also present at the indicated concentrations. […] The radioactivity in the sample was measured using a liquid scintillation analyser Tri-Carb 4910 TR (PerkinElmer). Water-injected oocytes were analyzed in parallel as a negative control. The buffer from each condition was measured in duplicate in parallel to each experiment to transform counts per minute into pmol of drug. Drug uptake attributable to PfCRT was determined by subtracting the background uptake from water-injected oocytes from that of PfCRT-expressing oocytes. […]

PfCRT^Dd2 = target: T2, PfCRT^Dd2 (Plasmodium falciparum, UniProt Q8IBZ9, A220S/I356T/K76T/M74I/N326S/N75E/Q271E/R371I); settings: read-out: apparent Km for CQ on PfCRT^Dd2, cited from earlier work
T2 sequence (Q8IBZ9 1-424 M74I/N75E/K76T/A220S/Q271E/N326S/I356T/R371I): T1 sequence (Q8IBZ9 1-424 M74I/N75E/K76T/A220S/I260A/Q271E/N326S/I356T/R371I) with A260I

PfCRT^Dd2_V141A = target: T3, PfCRT^Dd2_V141A (Plasmodium falciparum, UniProt Q8IBZ9, A220S/I356T/K76T/M74I/N326S/N75E/Q271E/R371I/V141A); experiment: PfCRT-mediated CQ transport in oocytes expressing PfCRT^Dd2_V141A; assay type: cell-based; settings: S6 Fig; per biological replicate
T3 construct: expressed in transfected cells; host or cells: Xenopus laevis oocytes
T3 sequence (Q8IBZ9 1-424 M74I/N75E/K76T/V141A/A220S/Q271E/N326S/I356T/R371I): T1 sequence (Q8IBZ9 1-424 M74I/N75E/K76T/A220S/I260A/Q271E/N326S/I356T/R371I) with V141A, A260I
Source text: as §1, §2

Dd2^Dd2crt parasites = test system: Dd2^Dd2crt parasites; set-up: method as in Okombo et al. (2022); settings: ref Okombo et al. (2022); cited from earlier work

SMILES	PfCRTDd2_I260A-mediated CQ transport (PfCRT^Dd2_I260A)	Km (PfCRT^Dd2; ref Bellanca et al., 2014) [µM]	Km (PfCRT^Dd2; ref Martin et al. 2009) [µM]	PfCRTDd2_V141A-mediated CQ transport (PfCRT^Dd2_V141A)	drug accumulation ratio (Dd2^Dd2crt parasites) [fold]
CCN(CC)CCCC(C)Nc1ccnc2cc(Cl)ccc12 (centres unmarked) [CQ, chloroquine]	2.260 pmol oocyte-1 h-1 and 2.400 pmol oocyte-1 h-1 and 3.540 pmol oocyte-1 h-1	250 ± 30	245 ± 3	1.080 pmol oocyte-1 h-1 and 0.460 pmol oocyte-1 h-1 and 1.360 pmol oocyte-1 h-1	–
Clc1ccc2c(N3CCN(CCCN4CCN(c5ccnc6cc(Cl)ccc56)CC4)CC3)ccnc2c1 [PPQ, piperaquine]	–	–	–	–	1900
